Tests used:
[1] = Inhibition of yeast Ero1p by fluorescence assay; set-up: species or system Saccharomyces cerevisiae
ERO1-like protein alpha = molecular target: T1, ERO1-like protein alpha (Homo sapiens, UniProt Q96HE7); assay: Inhibition of human Ero1-Lalpha
T1 sequence (Q96HE7 whole entry): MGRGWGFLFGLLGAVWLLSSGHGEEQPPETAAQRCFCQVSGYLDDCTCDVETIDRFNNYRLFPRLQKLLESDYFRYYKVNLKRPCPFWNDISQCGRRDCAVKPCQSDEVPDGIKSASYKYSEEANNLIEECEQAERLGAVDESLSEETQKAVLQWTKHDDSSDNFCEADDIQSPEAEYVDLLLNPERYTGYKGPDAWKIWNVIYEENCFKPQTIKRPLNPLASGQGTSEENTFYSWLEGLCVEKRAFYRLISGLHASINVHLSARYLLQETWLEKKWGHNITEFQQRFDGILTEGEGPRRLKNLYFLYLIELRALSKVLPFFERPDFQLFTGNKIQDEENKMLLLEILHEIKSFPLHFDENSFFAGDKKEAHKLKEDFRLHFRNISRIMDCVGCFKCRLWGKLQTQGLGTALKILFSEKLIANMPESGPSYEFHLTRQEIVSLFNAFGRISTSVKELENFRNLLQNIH

Q: With `COc1cc(/C=C2\C(=O)NN(c3ccc(Br)cc3)C2=O)cc(Br)c1OC(C)=O` as the molecule, how does the IC50 [1] read?
A: 31 µM

Q: And the IC50 (ERO1-like protein alpha)?
A: 3 µM

Q: With `COc1cc(Cl)cc(/C=C2\C(=O)NN(c3ccc(F)c(Cl)c3)C2=O)c1O` as the molecule, how does the IC50 (ERO1-like protein alpha) read?
A: 38 µM

Q: For `COc1ccc(/C=C2/C(=O)N(c3ccc(Cl)cc3)N=C2C(F)(F)F)cc1OC`, which IC50 [1] is on record?
A: 73 µM

Q: What about the IC50 (ERO1-like protein alpha) of the same molecule?
A: 8 µM

Q: Which IC50 (ERO1-like protein alpha) does the source give for `COc1cc(/C=C2/N=C(c3ccc4ccccc4c3)OC2=O)ccc1OC(C)=O` here?
A: 54 µM

Q: For `O=C(Nc1sc(-c2ccccc2)cc1C(=O)O)c1ccc(Br)cc1`, which IC50 (ERO1-like protein alpha) is on record?
A: 67 µM

Q: With `O=C(N/N=C1\C(=O)N(Cc2cccc([N+](=O)[O-])c2)c2ccccc21)c1cc2ccccc2cc1O` as the molecule, how does the IC50 (ERO1-like protein alpha) read?
A: 108 µM

Q: With `O=C(Cn1cnc([N+](=O)[O-])c1[N+](=O)[O-])Nc1cc(Oc2ccccc2)cc([N+](=O)[O-])c1` as the molecule, how does the IC50 [1] read?
A: > 300 µM

Q: What about the IC50 (ERO1-like protein alpha) of the same molecule?
A: 10 µM

Q: With `O=C(Nc1cc2c(cc1C(=O)O)C(=O)c1ccccc1C2=O)c1ccc([N+](=O)[O-])cc1` as the molecule, how does the IC50 (ERO1-like protein alpha) read?
A: 37 µM

Q: Which IC50 (ERO1-like protein alpha) does the source give for `O=C1NC(=O)N(c2ccc(Cl)cc2)C(=O)/C1=C/c1ccc(O)c(O)c1` here?
A: 11 µM

Q: With `CCOc1cc(/C=C2\C(=O)NC(=O)N(c3ccc(C)cc3)C2=O)ccc1OCCOc1cccc2ccccc12` as the molecule, how does the IC50 (ERO1-like protein alpha) read?
A: 17 µM

Q: Which IC50 (ERO1-like protein alpha) does the source give for `COc1ccc(N2C(=O)NC(=O)/C(=C\c3ccc(OCCOc4cccc(OC)c4)c(OC)c3)C2=O)cc1` here?
A: 24 µM

Q: For `O=C1NC(=O)N(c2ccc(Cl)cc2)C(=O)/C1=C/Nc1cccc(O)c1`, which IC50 (ERO1-like protein alpha) is on record?
A: 80 µM

Reference: ChEMBL document CHEMBL1667849, “Identification of small molecular inhibitors for Ero1p by structure-based virtual screening” (Bioorg Med Chem Lett, 2011)
